In the case of `Cl.Clc1cccc(Cl)c1C1CCN(Cc2c(-c3ccccc3)[nH]c3ccccc23)CC1`, the melting point (in general, the temperature, or range, at which the solid turns liquid) was 169 to 171 °C. The same measure for `Cl.Clc1cccc(Cl)c1C1CCN(Cc2cc3ccccc3[nH]2)CC1`: 238 to 240 °C.

Regarding `Cc1c(CN2CCC(c3c(Cl)cccc3Cl)CC2)[nH]c2ccccc12`, the melting point is 139 to 141 °C. `Cc1cccc(C)c1C1CCN(Cc2cc3ccccc3[nH]2)CC1`: the melting point is 128 to 130 °C. In turn, `Clc1cccc(Cl)c1C1CCN(Cc2[nH]c3ccccc3c2-c2ccccc2)CC1` yielded a melting point of 162 to 164 °C. `Cl.OCCn1c(CN2CCC(c3c(Cl)cccc3Cl)CC2)cc2ccccc21` showed a melting point of 263 to 265 °C.

`Cl.Clc1cccc(Cl)c1C1CCN(Cc2c[nH]c3ccccc23)CC1` had a melting point of 189 to 190 °C. Compound `Cc1[nH]c2ccccc2c1CN1CCC(c2c(Cl)cccc2Cl)CC1` came in with a melting point of 168 to 170 °C.

Consider `Cl.Clc1cccc(Cl)c1C1CCN(Cc2c(-c3ccccc3)n(Cc3ccccc3)c3ccccc23)CC1`, for which the melting point was in the range of 209 to 210 °C. The same measure for `CCCn1c(-c2ccccc2)c(CN2CCC(c3c(Cl)cccc3Cl)CC2)c2ccccc21.Cl`: 150 to 152 °C; for `Cl.Cn1c(-c2ccccc2)c(CN2CCC(c3c(Cl)cccc3Cl)CC2)c2ccccc21`: 179 to 184 °C (dec.); for `Cl.OCCn1c(-c2ccccc2)c(CN2CCC(c3c(Cl)cccc3Cl)CC2)c2ccccc21`: 205 to 206 °C.

These data come from patent publication US20070197603A1 (published 2007).
